The record followed here is patent publication US20130143955A1, “Cyclic di-GMP-II Riboswitches, Motifs, and Compounds, and Methods for Their Use” (priority 2010, published 2013).

Assay [1] has as its system 864 Cd Tandem RNA (c-di-GMP-II aptamer and group I ribozyme). The assay is described as follows: Self-splicing assays of the tandem riboswitch-ribozyme. In kind it is biochemical, Clostridium difficile 630. As to conditions: for Rate constant, product 3′E* (alternative GTP attack product) / Rate constant, product 5′E-3′E (spliced exons): Internally 32P-labeled RNA; for Rate constant, product GTP1 (GTP attack at 5′ SS) / Rate constant, product GTP2 (alternative GTP attack site): Unlabeled RNA, [α-32P]GTP. How it is done: Initial ribozyme self-splicing reaction conditions were based on those previously reported for use with a group I ribozyme from Tetrahymena thermophile and consisted of incubations at 30° C. in the presence of 50 mM HEPES (pH 7.5 at 23° C.), 100 mM (NH4)2SO4, 5 mM MgCl2, and 0.1 mM GTP. At concentrations of MgCl2 above 10 mM and temperatures at 37° C. or above, the difference between the ligated exons and alternate GTP attack site products became less pronounced. A range of ligand concentrations were tested for both GTP (5 μM to 1 mM) and cyclic di-GMP ([…] to 100 μM) to determine the optimal amounts for splicing activity, based on probable biological relevance and degree of allosteric control.
Splicing assays for wild-type and mutant RNAs were carried out for 30 minutes (unless otherwise noted) under the conditions described above, with the addition of 50 μM GTP and/or 10 μM c-di-GMP when stated. Final RNA concentrations were lower than 1 μM for all reactions. Reaction mixtures containing unlabeled RNA were supplemented with 1 μCi/μL [α-^32P]GTP. Products were separated by denaturing 6% PAGE. Gels were dried and products were subsequently imaged using a PhosphorImager (Molecular Dynamics).
Aliquots from splicing reactions conducted with either 5′ or internally ^32P-labeled 864 Cd Tandem RNAs were removed at various incubation times and the reactions were terminated by the addition of stop buffer (see below). Similarly, time course experiments were conducted with unlabeled 864 Cd Tandem RNAs supplemented with ˜50 nCi/μL [α-^32P]GTP. Reactions were initiated by combining a solution containing RNA only (˜100 pM 5′ ^32P-labeled RNA, ˜1 μM internally ^32P-labeled RNA, or ˜10 nM unlabeled RNA) with a solution containing the buffer and any ligands to yield a final concentration of contents as described above. The two mixtures were briefly pre-heated at 30° C. and the reaction was initiated by the transfer of buffer/ligand solution to the RNA solution. The zero time point was removed prior to initiation of the reaction and immediately placed into an equivalent volume of stop buffer (8 M urea, 20% w/v sucrose, 0.1% SDS, 0.05% bromophenol blue, 0.05% xylene cyanol FF, 0.09 M Tris base, 0.09 M borate, 1 mM EDTA [pH 8.0]). Likewise, subsequent aliquots were removed at each time point and quenched by placement in stop buffer. Reaction products were separated as described above and dried gels were imaged using a PhosphorImager (Molecular Dynamics).
For precursor RNAs that were initially ^32P-labeled, rate constants for product formation were established by determining the yield of specific products relative to the unprocessed or misprocessed RNAs. First, an average background for each lane was calculated and subtracted from intensities of individual bands or lanes. Second, product band intensities were compared to the total intensity of their corresponding lane, which corrected for any differences due to sample loading. Third, the band intensity at time zero was subtracted from the corresponding bands of all other time points. Yields of products from assays conducted with internally ^32P-labeled RNAs were also corrected for the number of uridine nucleotides in the product RNA versus the total number of uridine nucleotides in the precursor RNA (252 nucleotides). This correction allows for direct comparison of the number of molecules present in each product band. The total fraction of RNA processed at 120 minutes is ˜40%. […] This extent of RNA misfolding, particularly in the absense of possible protein factors, is also typical of other large functional RNAs. Thus, at 120 minutes, approximately 80% of the total reactable RNA has undergone processing. The fractions of RNA processed for the internally ^32P-labeled RNA was adjusted to reflect this value of 80% at 120 minutes.
For splicing assays conducted using unlabeled precursor RNAs, determination of rate constants were conducted differently. […]

Assay [2] has as its system ompR riboswitch (c-di-GMP-II, ompR 5′ UTR). Briefly: Single-round transcription termination assay. As to conditions: WT ompR construct, c-di-GMP 50 μM. The format is biochemical, C. difficile. Here is the method:
Single round transcription assays were conducted using a method (FIG. 7) adapted as described previously (data not shown) with the following modifications. The elongation mixture contained 50 μM UTP, and 150 μM each of ATP, GTP and CTP. Heparin was added at 0.1 mg/mL at initiation of elongation. For the reactions containing the second messenger, c-di-GMP was added to a final concentration of 50 μM.
A template DNA harboring the 5′ UTR of the ompR gene of C. difficile and its native promoter was prepared by PCR (see Table 4). The predicted intrinsic transcription termination site is 40 nucleotides shorter than the terminus of the template DNA. The ompR riboswitch is predicted to be an ‘ON’ switch based on its architecture. Therefore the full length transcript was expected to undergo decreased termination in the presence of c-di-GMP. Mutant templates M2 and M3 were constructed by PCR and confirmed by sequencing (see Table 4). A template DNA for production of a simulated intrinsic transcription termination product was generated by PCR and was used as a marker during PAGE analysis of transcription products.
Further evidence of aptamer-controlled transcription termination was observed by conducting single-round transcription assays in vitro using another C. difficile c-di-GMP-II construct from the ompR mRNA (FIG. 2C). […]

The mark [3] stands for this setting: GTP + and c-di-GMP +, first 15 minutes.

SMILES strings stand for the structures. Values joined by “and” are separate entries in the source; they are usually repeats but may differ in a detail not shown here. Equal values may be shown once.

Turning to `Nc1nc2c(ncn2[C@@H]2O[C@H](COP(=O)(O)OP(=O)(O)OP(=O)(O)O)[C@@H](O)[C@H]2O)c(=O)[nH]1` [GTP], the “ratio of alternative attack product (3′E*) to spliced exons (5′E-3′E)” value in assay [1] (120 minutes, absence of c-di-GMP (GTP only)) is given as “more than 20 fold”. In assay [1] (GTP + and c-di-GMP −), the “Rate constant, product 3′E* (alternative GTP attack product)” value came out at 0.024 min⁻¹; the “Rate constant, product 5′E-3′E (spliced exons)” value was 1.1×10^−3 min^−1; the “Rate constant, product GTP1 (GTP attack at 5′ SS)” value is 0.0018 min⁻¹; the “Rate constant, product GTP2 (alternative GTP attack site)” value worked out at 0.027 min⁻¹.

With `Nc1nc2c(ncn2[C@@H]2O[C@@H]3COP(=O)(O)O[C@H]4[C@@H](O)[C@H](n5cnc6c(=O)[nH]c(N)nc65)O[C@@H]4COP(=O)(O)O[C@H]3[C@H]2O)c(=O)[nH]1` [c-di-GMP, cyclic di-GMP], the EC50 in assay [1] (5′ 32P-labeled 864 Cd Tandem RNA, 120 minutes, read-out: S50, concentration of c-di-GMP at which 5′E-3′E is half-maximally processed) was ~30 nM and 30 nM. In assay [1] (120 minutes, c-di-GMP present), the “ratio of alternative attack product (3′E*) to spliced exons (5′E-3′E)” value is “near equal amounts”. The “increase in initial rate constant for GTP attack at the 5′ SS” value in assay [1] (GTP and c-di-GMP versus only GTP, unlabeled RNA, first 15 minutes) is around 13 fold. Further, in assay [1] (GTP + and c-di-GMP +), the “Rate constant, product 3′E* (alternative GTP attack product)” value was 0.018 min⁻¹ and the “Rate constant, product 5′E-3′E (spliced exons)” value is listed as 1.3×10^−2 min^−1. In assay [1] (setting [3]), the “Rate constant, product GTP1 (GTP attack at 5′ SS)” value came out at 0.023 min⁻¹ and the “Rate constant, product GTP2 (alternative GTP attack site)” value worked out at 0.023 min⁻¹. Besides, the “increase in the production of spliced exons” value in assay [1] (presence versus absence of c-di-GMP, 120 minutes) was around 8 fold. Also, the “increase in the initial rate constant for spliced product formation” value in assay [1] (presence versus absence of c-di-GMP, internally labeled RNA) was found to be 12 fold. In addition, the “production of full-length RNA transcript (transcription termination control)” value in assay [2] was “robust production of full-length RNA transcript only when c-di-GMP is added”.
